From patent US11987647B2, “Cyclic cell-penetrating peptides with one or more hydrophobic residues” (Ohio State Innovation Foundation, priority 2018, dated 2024)
[ ]: non-standard residue; d: D form. The star is where a group is joined. FtBu = phenylalanine with a tert-butanoyl substituent (F^tBu); 2Nal = N[C@@H](Cc1ccc2ccccc2c1)C(=O)O; Fmoc = O=C(OCC1c2ccccc2-c2ccccc21)*; Decanoyl = CCCCCCCCCC(=O)*; Octanoyl = CCCCCCCC(=O)*; Dap = NC[C@H](N)C(=O)O; Hexanoyl = CCCCCC(=O)*

Tests used:
HeLa cells [1] = assay: Cytosolic entry efficiency of NF-labelled peptides by flow cytometry; format: cell-based; details: for Cellular Entry Efficiency In 10% FBS: 2 h, relative to CPP12 (100%); for CPP activity compared with CPP1-4 (in words): variant of CPP1-4; for CPP activity compared with CPP1-15 (in words): stereochemical variation of CPP1-15
Protocol: All of the peptides were labeled with naphthofluorescein (NF) at the Gln side chain through a long, flexible linker, miniPEG-Lys. HeLa cells were treated with 5 μM peptide for 2 h in the presence of 10% FBS and the cytosolic entry of the peptides was quantitated by flow cytometry analysis.
To determine cellular uptake efficiency of the CPPs disclosed herein, HeLa cells were cultured in 12-well plates (1.5×10^5 cells per well) overnight. The cells were incubated for 2 h with […] naphthofluorescein (NF)-labelled peptide in cellular media. At the end of incubation, the cells were washed with DPBS twice, detached from the plate with 0.25% trypsin, diluted into clear DMEM, pelleted at 250 g for 5 min, washed twice with DPBS, resuspended in DPBS, and analyzed on a BD FACS LSR II flow cytometer. For NF-labelled peptides, a 633-nm laser was used for excitation and the fluorescence emission was analyzed in the APC channel. Absolute cellular uptake efficiency was determined by comparing the concentration (via fluorescence intensity) of the CPP in the cytosol to the concentration in the extracellular medium. Relative cellular uptake efficiency was determined by comparing the cytosolic concentration of the CPP to that cytosolic concentration of the control CPP cyclo(FΦRRRRQ).

HeLa cells [2] = assay: as above; format: cell-based; details: for Cellular Entry Efficiency In 1% FBS: relative to CPP12 (100%)
[3] = Table 4, 5 μM NF-labelled peptide, 10% FBS
[4] = Table 7, 5 μM NF-labelled peptide, 10% FBS

| Substance | Cellular Entry Efficiency In 10% FBS (HeLa cells [1]; [3]) [%] | Cellular Entry Efficiency In 10% FBS (HeLa cells [1]; [4]) [%] | Cellular Entry Efficiency In 1% FBS (HeLa cells [2]; Table 4, NF-labelled peptide) [%] | Cellular Entry Efficiency In 1% FBS (HeLa cells [2]; Table 7, NF-labelled peptide) [%] | also measured |
| --- | --- | --- | --- | --- | --- |
| cyclo(Asp^DecyRrRrQ) [CPP1-22] | 11 | 11 |  |  |  |
| cyclo(Asp^DecyrRrRQ) [CPP1-24] | 8.6 | 8.6 |  |  |  |
| cyclo(Dap^1-PyrenRRRRQ) (cyclo([Dap](1‑pyrenoyl)RRRRQ)) [CPP1-5] | 10 ± 20 | 10 ± 20 |  |  |  |
| cyclo(Dap^1-PyrenebRRRRQ) (cyclo([Dap](1‑pyrenylbutanoyl)RRRRQ)) [CPP1-8] | 24 ± 1 | 24 ± 1 |  |  |  |
| cyclo(Dap^3,3-diphenyRRRRQ) (cyclo([Dap](3,3‑diphenylpropanoyl)RRRRQ)) [CPP1-6] | 3.9 ± 0.4 | 3.9 ± 0.4 |  |  |  |
| cyclo(Dap^DecaARRRQ) (cyclo([Dap](Decanoyl)ARRRQ); SMILES CCCCCCCCCC(=O)NC[C@@H]1NC(=O)[C@H](CCC(N)=O)NC(=O)[C@H](CCCNC(=N)N)NC(=O)[C@H](CCCNC(=N)N)NC(=O)[C@H](CCCNC(=N)N)NC(=O)[C@H](C)NC1=O) [CPP1-12] | 26 ± 4 | 26 ± 4 | 34 | 34 | CPP activity compared with CPP1-4 (in words) (HeLa cells [1]): reduced the CPP activity |
| cyclo(Dap^DecaRRRAQ) (cyclo([Dap](Decanoyl)RRRAQ); SMILES CCCCCCCCCC(=O)NC[C@@H]1NC(=O)[C@H](CCC(N)=O)NC(=O)[C@H](C)NC(=O)[C@H](CCCNC(=N)N)NC(=O)[C@H](CCCNC(=N)N)NC(=O)[C@H](CCCNC(=N)N)NC1=O) [CPP1-13] | 32 ± 2 | 32 ± 2 | 33 | 33 | CPP activity compared with CPP1-4 (in words) (HeLa cells [1]): reduced the CPP activity |
| cyclo(Dap^DecaRRRQ) (cyclo([Dap](Decanoyl)RRRQ); SMILES CCCCCCCCCC(=O)NC[C@@H]1NC(=O)[C@H](CCC(N)=O)NC(=O)[C@H](CCCNC(=N)N)NC(=O)[C@H](CCCNC(=N)N)NC(=O)[C@H](CCCNC(=N)N)NC1=O) [CPP1-16] | 3.0 ± 0.1 | 3.0 ± 0.1 | 25 | 25 | CPP activity compared with CPP1-4 (in words) (HeLa cells [1]): greatly decreased the CPP activity |
| cyclo(Dap^DecaRRRRQ) (cyclo([Dap](Decanoyl)RRRRQ); SMILES CCCCCCCCCC(=O)NC[C@@H]1NC(=O)[C@H](CCC(N)=O)NC(=O)[C@H](CCCNC(=N)N)NC(=O)[C@H](CCCNC(=N)N)NC(=O)[C@H](CCCNC(=N)N)NC(=O)[C@H](CCCNC(=N)N)NC1=O) [CPP1-4] | 57 ± 19 | 57 ± 19 |  |  | cytosolic entry efficiency (HeLa cells [2]; reduced serum concentration (1% FBS), CPP12 most active): 44%; activity, fold higher than CPP1 (HeLa cells [1]; 10% FBS, versus CPP1): 2.5 fold; sensitivity to serum concentration (HeLa cells [1]; 10% vs 1% FBS, compared with CPP9 or CPP12): lower sensitivity to serum concentration |
| cyclo(Dap^DecaRRRRRQ) (cyclo([Dap](Decanoyl)RRRRRQ); SMILES CCCCCCCCCC(=O)NC[C@@H]1NC(=O)[C@H](CCC(N)=O)NC(=O)[C@H](CCCNC(=N)N)NC(=O)[C@H](CCCNC(=N)N)NC(=O)[C@H](CCCNC(=N)N)NC(=O)[C@H](CCCNC(=N)N)NC(=O)[C@H](CCCNC(=N)N)NC1=O) [CPP1-14] | 12 ± 1 | 12 ± 1 | 21 | 21 | CPP activity compared with CPP1-4 (in words) (HeLa cells [1]): greatly decreased the CPP activity |
| cyclo(Dap^DecaRrRrQ) [CPP1-10] | 21 ± 9 | 21 ± 9 | 24 | 24 | CPP activity compared with CPP1-4 (in words) (HeLa cells [1]): substantially decreased the CPP activity |
| cyclo(Dap^DecarRrRQ) [CPP1-11] | 20 ± 6 | 20 ± 6 | 29 | 29 | CPP activity compared with CPP1-4 (in words) (HeLa cells [1]): substantially decreased the CPP activity |
| cyclo(Dap^FmocRRRRQ) (cyclo([Dap](Fmoc)RRRRQ); SMILES N=C(N)NCCC[C@@H]1NC(=O)[C@H](CCCNC(=N)N)NC(=O)[C@H](CCCNC(=N)N)NC(=O)[C@H](CNC(=O)OCC2c3ccccc3-c3ccccc32)NC(=O)[C@H](CCC(N)=O)NC(=O)[C@H](CCCNC(=N)N)NC1=O) [CPP1-7] | 17 ± 1 | 17 ± 1 |  |  |  |
| cyclo(Dap^HexanRRRRQ) (cyclo([Dap](Hexanoyl)RRRRQ); SMILES CCCCCC(=O)NC[C@@H]1NC(=O)[C@H](CCC(N)=O)NC(=O)[C@H](CCCNC(=N)N)NC(=O)[C@H](CCCNC(=N)N)NC(=O)[C@H](CCCNC(=N)N)NC(=O)[C@H](CCCNC(=N)N)NC1=O) [CPP1-2] | 2.9 ± 0.2 | 2.9 ± 0.2 |  |  |  |
| cyclo(Dap^OctanRRRRQ) (cyclo([Dap](Octanoyl)RRRRQ); SMILES CCCCCCCC(=O)NC[C@@H]1NC(=O)[C@H](CCC(N)=O)NC(=O)[C@H](CCCNC(=N)N)NC(=O)[C@H](CCCNC(=N)N)NC(=O)[C@H](CCCNC(=N)N)NC(=O)[C@H](CCCNC(=N)N)NC1=O) [CPP1-3] | 5.7 ± 0.6 | 5.7 ± 0.6 |  |  |  |
| cyclo(F^tBuRRRRQ) (cyclo([FtBu]RRRRQ)) [CPP1-1] | 6.7 ± 0.4 | 6.7 ± 0.4 |  |  |  |
| cyclo(FfΦRrRrQ) [CPP12, reference compound] | 100 | 100 | 100 | 100 |  |
| cyclo(FΦRRRRQ) (cyclo(F[2Nal]RRRRQ); SMILES N=C(N)NCCC[C@@H]1NC(=O)[C@H](CCCNC(=N)N)NC(=O)[C@H](CCCNC(=N)N)NC(=O)[C@H](Cc2ccc3ccccc3c2)NC(=O)[C@H](Cc2ccccc2)NC(=O)[C@H](CCC(N)=O)NC(=O)[C@H](CCCNC(=N)N)NC1=O) [CPP1, the first cyclic CPP discovered, reference compound] | 21 | 21 |  |  |  |
| cyclo(Glu^DecyRrRrQ) [CPP1-23] | 1.4 | 1.4 |  |  |  |
| cyclo(Glu^DecyrRrRQ) [CPP1-25] | 34 | 34 |  |  |  |
| cyclo(Lys^DecaRrRrQ) [CPP1-18] | 31 | 31 |  |  | CPP activity compared with CPP1-15 (in words) (HeLa cells [1]): reduced the CPP activity |
| cyclo(Lys^DecarRrRQ) [CPP1-19] | 12 | 12 |  |  | CPP activity compared with CPP1-15 (in words) (HeLa cells [1]): reduced the CPP activity |
